Five compounds from patent publication US12162858B2, “Quinoline derivatives as inhibitors of AXL/MER RTK and CSF1R” (QURIENT CO., LTD., priority 2018, dated 2024) can be followed below.

One test deals with T1, Axl (Ba/F3 cells) (Homo sapiens, UniProt P30530).
T1 sequence (P30530 1-894): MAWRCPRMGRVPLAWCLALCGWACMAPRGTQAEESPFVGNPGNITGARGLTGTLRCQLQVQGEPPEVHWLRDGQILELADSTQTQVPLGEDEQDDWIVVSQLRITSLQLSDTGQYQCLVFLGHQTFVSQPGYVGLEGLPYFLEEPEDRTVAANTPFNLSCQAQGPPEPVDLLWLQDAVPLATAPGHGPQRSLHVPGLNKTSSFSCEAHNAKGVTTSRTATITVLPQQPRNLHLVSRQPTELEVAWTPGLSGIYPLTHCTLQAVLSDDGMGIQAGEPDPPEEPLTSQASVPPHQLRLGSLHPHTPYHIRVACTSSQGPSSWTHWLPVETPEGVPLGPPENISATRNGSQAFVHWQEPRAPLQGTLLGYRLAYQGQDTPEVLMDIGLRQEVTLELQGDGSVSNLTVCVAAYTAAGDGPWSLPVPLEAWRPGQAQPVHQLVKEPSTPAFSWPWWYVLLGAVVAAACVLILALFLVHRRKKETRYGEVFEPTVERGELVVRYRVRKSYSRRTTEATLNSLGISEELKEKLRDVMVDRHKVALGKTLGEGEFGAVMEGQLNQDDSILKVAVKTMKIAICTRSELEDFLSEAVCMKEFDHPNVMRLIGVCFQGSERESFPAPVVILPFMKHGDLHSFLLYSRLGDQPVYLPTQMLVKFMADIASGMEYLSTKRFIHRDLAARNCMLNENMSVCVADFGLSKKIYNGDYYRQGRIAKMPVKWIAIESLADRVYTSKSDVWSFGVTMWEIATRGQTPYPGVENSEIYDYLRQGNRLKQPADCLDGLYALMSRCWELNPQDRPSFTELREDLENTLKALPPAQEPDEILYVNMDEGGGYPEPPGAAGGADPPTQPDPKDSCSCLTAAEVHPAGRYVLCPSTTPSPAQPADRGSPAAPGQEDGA
The test is described as follows: BaF3 viability assay, Axl-dependent cells. Format: cell-based. The conditions noted are these: read-out: Cellular Axl activity by Ba/F3 assay (IC50). The text has this: (§1) In this system, IL-3-dependent Ba/F3 cells are modified to express an activated recombinant kinase (in the present case Axl, Mer and CSF1R). Following removal of IL-3, the modified cells are dependent on the activity of the recombinant kinase for survival and proliferation. Inhibition of such kinase(s) through test compounds reduces survival and proliferation of the cells.
(§2) Cell lines were maintained in growth media (GM) consisting of RPMI 1640 supplemented with 10% FBS. Cells in logarithmic-phase growth were harvested and 5,000 cells were distributed into each well of a 384-well plate in 50 μl GM. Parental cells (or experimental assays where specified) were further supplemented with 2 ng/ml IL-3 to support cell growth and survival. Fifty nanoliters of the indicated reference standard or experimental compound were added to appropriate wells (in duplicate) and the cells were cultured for 48 h at 37° C./5% CO2. Viability was determined by adding 10 μl Cell Titer Glo and measuring luminescence, which is reported as relative light units (RLU) measured in counts per second. The following calculations and formulas are used for data analysis using GraphPad Prism software: The curve fitting was made using the Dose response curves-Inhibition.

A further test addresses CSF1R (Ba/F3 cells) (Homo sapiens, UniProt P07333). Kind of test: BaF3 viability assay, CSF1R-dependent cells. Format: cell-based. The conditions noted are these: read-out: Cellular CSF1R activity by Ba/F3 assay (IC50).
Description: as §1, §2

The next test has as its system MV4-11 tumor cells. Kind of test: MV4-11 xenograft tumor model. The conditions noted are these: oral, daily; vs compound 27 of WO 2016/166250 or vehicle; FIG. 2. Format: in vivo, BALB/c nude mice. The text has this:
FIGS. 1 and 2 show comparison data of compound 4 of the present invention (marked with two asterisks** and diamond) vs. compound 27 of WO2016/166250 (marked with single asterisk* and open square) in mouse models EMT-6 and MV4-11; EMT-6 measures triple inhibition of Axl, Mer and CSF1R. MV4-11 measures inhibition of Axl.
High expression of Axl or Gas6 in acute myeloid leukemia (AML) patients is prognostic for poor survival outcome. AML cells induce expression and secretion of the Axl ligand Gas6 by bone marrow-derived stromal cells (BMDSCs). Gas6 in turn mediates proliferation, survival, and chemoresistance of Axl-expressing AML cells. This Gas6/Axl paracrine axis between AML cells and BMDSCs establishes a chemoprotective tumor cell niche that can be abrogated by Axl-targeting approaches. […]
BALB/c nude mice (6-8 week female, Shanghai SIPPR/BK Laboratory Animal Co., LTD.) were inoculated subcutaneously at the upper right flank with MV4-11 tumor cells (1×10^7) in 0.1 mL of PBS+Matrigel (1:1) for tumor development. […] Tumor volumes were measured every 3 days with a digital caliper, and were calculated using the formula: V=0.5a×b^2 where a and b are the long and short diameters of the tumor in mm, respectively. Body weight was measured every 3 days. […] Death and observed clinical signs were recorded on the basis of the numbers of animals within each subset. […]

Each structure is given as a SMILES string.

CSF1R (Ba/F3 cells), sequence (P07333 whole entry, change not shown): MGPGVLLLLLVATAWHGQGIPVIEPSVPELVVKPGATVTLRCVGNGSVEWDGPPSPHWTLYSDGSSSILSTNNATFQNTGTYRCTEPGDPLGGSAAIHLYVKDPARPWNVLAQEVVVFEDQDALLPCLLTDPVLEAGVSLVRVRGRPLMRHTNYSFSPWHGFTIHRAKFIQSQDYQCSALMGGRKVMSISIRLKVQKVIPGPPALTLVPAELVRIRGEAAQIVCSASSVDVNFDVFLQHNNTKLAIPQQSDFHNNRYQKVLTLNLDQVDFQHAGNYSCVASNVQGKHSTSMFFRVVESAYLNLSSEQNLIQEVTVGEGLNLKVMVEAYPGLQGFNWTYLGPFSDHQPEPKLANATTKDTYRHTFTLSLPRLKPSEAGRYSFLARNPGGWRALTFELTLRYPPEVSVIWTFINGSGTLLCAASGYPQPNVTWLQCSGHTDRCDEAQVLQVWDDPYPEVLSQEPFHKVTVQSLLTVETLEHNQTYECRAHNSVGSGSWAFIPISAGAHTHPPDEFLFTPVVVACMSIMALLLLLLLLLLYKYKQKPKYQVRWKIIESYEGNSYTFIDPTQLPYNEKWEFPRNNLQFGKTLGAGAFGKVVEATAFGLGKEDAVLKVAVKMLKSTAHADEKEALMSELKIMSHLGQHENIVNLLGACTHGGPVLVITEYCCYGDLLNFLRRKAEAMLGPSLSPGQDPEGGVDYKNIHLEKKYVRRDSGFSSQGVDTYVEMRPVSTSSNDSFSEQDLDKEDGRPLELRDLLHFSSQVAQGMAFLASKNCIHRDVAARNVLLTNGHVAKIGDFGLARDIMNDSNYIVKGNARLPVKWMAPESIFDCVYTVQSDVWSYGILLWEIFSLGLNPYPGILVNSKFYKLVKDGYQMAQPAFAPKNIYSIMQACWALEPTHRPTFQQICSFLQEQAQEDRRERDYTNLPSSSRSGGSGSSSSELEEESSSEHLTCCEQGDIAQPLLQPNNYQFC

Turning to `CCn1cc(OCC(F)(F)F)c(C(=O)Nc2ccc(Oc3ccnc4cc(OC)c(OC)cc34)cn2)n1` [Compound 4], the GI50 on Axl (Ba/F3 cells) and on CSF1R (Ba/F3 cells) was below 1000 nM in each case. For the same compound, the “tumor growth delay, MV4-11 xenograft model” value in the test on MV4-11 tumor cells was “delay tumor growth to a drastically larger extent”.
Turning to `CCCn1cc(OCC(F)(F)F)c(C(=O)Nc2ccc(Oc3ccnc4cc(OC)c(OC)cc34)cn2)n1` [Compound 7], the GI50 on Axl (Ba/F3 cells) and on CSF1R (Ba/F3 cells) was below 1000 nM each time.
Turning to `COCCn1cc(OCC(F)(F)F)c(C(=O)Nc2ccc(Oc3ccnc4cc(OC)c(OC)cc34)cn2)n1` [Compound 10], the GI50 at Axl (Ba/F3 cells) and on CSF1R (Ba/F3 cells) was below 1000 nM each time.
With `CCCn1cc(OCC(F)F)c(C(=O)Nc2ccc(Oc3ccnc4cc(OC)c(OC)cc34)cn2)n1` [Compound 12], the GI50 on Axl (Ba/F3 cells) and at CSF1R (Ba/F3 cells) was below 1000 nM in each case.
As for `COc1cc2nccc(Oc3ccc(NC(=O)c4n[nH]cc4OCC(F)(F)F)nc3)c2cc1OC` [Compound 16], the GI50 on Axl (Ba/F3 cells) and on CSF1R (Ba/F3 cells) was below 1000 nM throughout.
